Results: US6143737A, “Progesterone analogs to reverse multidrug resistance” (priority 1996, dated 2000)

Tests used:
[1] = test system: sensitive parental cells; assay: Effect in sensitive (parental) control cells: VBL accumulation and resistance reversal; type: cell-based, human
Text: We then determined the relative potency for increasing [^3 H] VBL accumulation in control (parental) and resistant cells (MCF-7^ADR) and/or MDR1 transduced in comparison with progesterone and verapamil. […]. […] […].
(§1) The ability of compound 4 to reverse both [^3 H]

[2] = test system: MDA435/LCC6^MDR1 cells; settings: 1 μM compound 4
Experimental: (§2) The growth inhibition experiments, i.e., anchorage dependent and independent assays, are designed to allow evaluation of drug interactions by isobologram analysis. Thus, they include a full definition of the dose-response curves relative to the single agents (untreated and up to 8 drug concentrations), all combinations of 5 concentrations of the modulating agent (e.g., C7 analogue) and up to 9 concentrations of the target agent. […] Briefly, cell monolayers are treated with the appropriate drugs, reversing agents and vehicle(s), the monolayers washed 3 times with growth media, gently trypsinized, and suspended in 1.5 ml growth medium containing 0.6% (w/v) agar at 41° C. […] This agar solution is placed over a solid bottom agar layer and incubated for 10 days at 37° C. Dishes are refed with 500 μl of growth medium on days 3 and 6. Colonies of 50 cells or more (~60 μm diameter) are counted using an Omnicron electronic colony counter. Statistical analyses of colony forming ability will be performed using ANOVA.
(§3) Dose-response curves of the cytotoxic drug are obtained in the absence and presence of the chemosensitizer. The curves are corrected by dividing the observed survival values by the fractional survival to the chemosensitizer alone (where present in the combination), and IC50 values obtained by interpolation on the corrected curves. The activity of the chemosensitizer will be quantified as FS=IC50 (-)/IC50 (+), where FS=Fold Sensitization, and IC50 (-) and IC50 (+) are the cytotoxic drug IC50 s respectively in the absence and presence of the chemosensitizer.

[3] = test system: MCF-7^ADR cells
Experimental: as §2, §3

[4] = type: in vitro ADME
Text: (§4) Information on drug stability in serum also may be indirectly assessed by comparing effects on [^3 H] VBL accumulation with cytotoxicity (reversing) assays using a continuous exposure. For example, Thimmaiah, K. N. et al. (J. Med. Chem. 35:3358-3364 (1992)) reported that some phenoxazine analogues increased [^3 H] VBL accumulation but were ineffective at reversing VBL cytotoxicity. […] VBL accumulation and reversing PGP-mediated resistance.
as §1

[5] = test system: MCF-7^ADR cells; assay: [^3 H] VBL accumulation in MCF-7^ADR cells; type: cell-based, human
Experimental: 5:231-243 (1985)) and provide sufficient free TAM levels in the ER-positive cells.
(§5) While many PGP-reversing agents have been studied, the majority are maximally active in vitro at concentrations≥10 μM. It is widely acknowledged that, for many of these compounds, it is impossible to achieve this level in the sera of patients without inducing severe dose limiting toxicities (Miller, T. P. et al., J. Clin. Oncol. 9:17-24 (1991); Murren & Hait, Oncology Res. 1:1-6 (1992); Dalton, W. D. et al., J. Clin. Oncol. 7:415-424 (1989); Miller, R. L. et al., J. Clin Oncol. 6:880-888 (1988)). Our compounds were evaluated in vitro using concentrations likely to be pharmacologically relevant. […] To determine potency relative to verapamil, we compared the equieffective concentrations. […]. Oncol. 9:17-24 (1991); Dalton, W. D. et al., J. Clin. Oncol. 7:415-424 (1989)). Similar serum levels of progestagens are achieved in patients receiving standard dosing, e.g. megesterol acetate (0.7 μM) (Lundgren & Lonning, J. Steroid. Biochem. 36:105-109 (1990)).
(§6) We then determined the relative potency for increasing [^3 H] VBL accumulation in control (parental) and resistant cells (MCF-7^ADR) and/or MDR1 transduced in comparison with progesterone and verapamil. […]. […]

[6] = test system: PGP-resistant cells; assay: PGP-mediated resistance reversal (VBL cytotoxicity, continuous exposure); type: cell-based; settings: preliminary data
Text: as §4

[7] = test system: CL 10.3 cells; assay: [^3 H] VBL accumulation in MDR1-transduced CL 10.3 cells; type: cell-based, human
Experimental: While many PGP-reversing agents have been studied, the majority are maximally active in vitro at concentrations≥10 μM. […] Our compounds were evaluated in vitro using concentrations likely to be pharmacologically relevant. […] To determine potency relative to verapamil, we compared the equieffective concentrations. […] Oncol.
We then determined the relative potency for increasing [^3 H] VBL accumulation in control (parental) and resistant cells (MCF-7^ADR) and/or MDR1 transduced in comparison with progesterone and verapamil.

[8] = test system: MCF-7^ADR cells and cells transfected with the MDR gene (CL 10.3); type: cell-based, human
Experimental: as §5, §6

[9] = MCF-7^ADR and MDR-transfected cells, up to

CC(=O)C1CCC2C3C(Sc4ccc(NC(=O)NCCc5ccccc5)cc4)CC4=CC(=O)CCC4(C)C3CCC12C (stereo not shown) [Compound 4]
specificity for PGP ([1]; PGP-resistant vs sensitive parental cells): specific for PGP
activity in sensitive control cell populations ([1]; sensitive control / parental cells): not in sensitive control cell populations
fold sensitization to VBL at VBL's IC50 ([2]; transduced MDA435/LLC6 cells): 20 fold
residual VBL resistance ([2]; MDA435/LCC6MDR1, from an initial 49-fold): 2.4 fold
fold sensitization to VBL at VBL's IC50 ([3]; 1 μM compound 4, MCF-7^ADR): up to 9 fold
residual VBL resistance ([3]; MCF-7^ADR, 1 μM compound 4, from an initial 32-fold): 3.8 fold
potency relative to progesterone in increasing VBL cytotoxicity ([3]; human): approximately 23 fold
potency relative to verapamil in increasing VBL cytotoxicity ([3]; human): approximately 6 fold
stability in vitro [4]: stable in vitro
concentration equieffective with the ED50 of verapamil for increasing intracellular VBL: fold lower than progesterone [5]: 35 fold
concentration equieffective with the ED50 of verapamil for increasing intracellular VBL: fold lower than verapamil [5]: 5 fold
reversing PGP-mediated resistance [6]: highly potent
concentration equieffective with the ED50 of verapamil for increasing intracellular VBL: fold lower than progesterone [7]: 30 fold
concentration equieffective with the ED50 of verapamil for increasing intracellular VBL: fold lower than verapamil [7]: 7 fold
maximal increase in intercellular VBL relative to verapamil [8]: equivalent to that achievable with verapamil
potency relative to progesterone (fold more potent) [8, 9]: up to 35 fold
potency relative to verapamil, equal-molar basis (ratio of ED50 s) [8, 9]: up to 6 fold
potency relative to verapamil in vitro (VBL accumulation and cytotoxicity) ([8]; human): ≥ 6 fold
effectiveness among the novel C7 analogs ([8]; preliminary analyses): more effective of the novel C7 analogs
increasing [^3 H] VBL accumulation ([8]; preliminary data): highly potent
potency in increasing [^3 H] VBL accumulation relative to the lead compound (progesterone) ([8]; up to): up to 35 fold
potency in increasing [^3 H] VBL accumulation relative to verapamil ([8]; up to): up to 7 fold
